Assay results from the supplement of paper PMC11451515.

Tested on: SEM cells
Experiment: cell viability relative to DMSO control; higher = less cytotoxic
Settings: 48 h
How it was run: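 In 1536-well plates, 5 μl of leukemia cells were seeded per well: 500 cells/well for NOMO1 or SEM and 1000 cells/well for P12-Ichikawa. Each line had first been adapted for at least four passages in each medium. Library compounds in DMSO were pin-dosed at 11 threefold concentrations between 47 μM and 0.79 nM, and CellTiter-Glo One luminescence was read after 48 h at 37°C. Viability is a per-plate percentage relative to DMSO wells, with cell-free wells as background.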

[1] = HPLM + 10% dialyzed FBS, 0.000781 µM
[2] = HPLM + 10% dialyzed FBS, 0.00234 µM
[3] = HPLM + 10% dialyzed FBS, 0.00702 µM
[4] = HPLM + 10% dialyzed FBS, 0.0211 µM
[5] = HPLM + 10% dialyzed FBS, 0.0632 µM
[6] = HPLM + 10% dialyzed FBS, 0.19 µM
[7] = HPLM + 10% dialyzed FBS, 0.569 µM
[8] = HPLM + 10% dialyzed FBS, 1.71 µM
[9] = HPLM + 10% dialyzed FBS, 5.12 µM
[10] = HPLM + 10% dialyzed FBS, 15.4 µM
[11] = HPLM + 10% dialyzed FBS, 46.1 µM
[12] = RPMI 5 mM glucose + 10% FBS, 0.000781 µM
[13] = RPMI 5 mM glucose + 10% FBS, 0.00234 µM
[14] = RPMI 5 mM glucose + 10% FBS, 0.00702 µM
[15] = RPMI 5 mM glucose + 10% FBS, 0.0211 µM
[16] = RPMI 5 mM glucose + 10% FBS, 0.0632 µM
[17] = RPMI 5 mM glucose + 10% FBS, 0.19 µM
[18] = RPMI 5 mM glucose + 10% FBS, 0.569 µM
[19] = RPMI 5 mM glucose + 10% FBS, 1.71 µM
[20] = RPMI 5 mM glucose + 10% FBS, 5.12 µM
[21] = RPMI 5 mM glucose + 10% FBS, 15.4 µM
[22] = RPMI 5 mM glucose + 10% FBS, 46.1 µM
[23] = RPMI 5 mM glucose + 10% dialyzed FBS, 0.000781 µM
[24] = RPMI 5 mM glucose + 10% dialyzed FBS, 0.00234 µM
[25] = RPMI 5 mM glucose + 10% dialyzed FBS, 0.00702 µM
[26] = RPMI 5 mM glucose + 10% dialyzed FBS, 0.0211 µM
[27] = RPMI 5 mM glucose + 10% dialyzed FBS, 0.0632 µM
[28] = RPMI 5 mM glucose + 10% dialyzed FBS, 0.19 µM
[29] = RPMI 5 mM glucose + 10% dialyzed FBS, 0.569 µM
[30] = RPMI 5 mM glucose + 10% dialyzed FBS, 1.71 µM
[31] = RPMI 5 mM glucose + 10% dialyzed FBS, 5.12 µM
[32] = RPMI 5 mM glucose + 10% dialyzed FBS, 15.4 µM
[33] = RPMI 5 mM glucose + 10% dialyzed FBS, 46.1 µM

SMILES | cell viability [1] | cell viability [2] | cell viability [3] | cell viability [4] | cell viability [5] | cell viability [6] | cell viability [7] | cell viability [8] | cell viability [9] | cell viability [10] | cell viability [11] | cell viability [12] | cell viability [13] | cell viability [14] | cell viability [15] | cell viability [16] | cell viability [17] | cell viability [18] | cell viability [19] | cell viability [20] | cell viability [21] | cell viability [22] | cell viability [23] | cell viability [24] | cell viability [25] | cell viability [26] | cell viability [27] | cell viability [28] | cell viability [29] | cell viability [30] | cell viability [31] | cell viability [32] | cell viability [33]
CCN1CCN(c2ccc(Nc3cc(N(C)C(=O)Nc4c(Cl)c(OC)cc(OC)c4Cl)ncn3)cc2)CC1 | 95% | 63.6% | 102% | 93.3% | 102% | 96.9% | 84.2% | 82.9% | 35.5% | 17% | 5.71% | 90.1% | 104% | 92.3% | 102% | 84.2% | 90.4% | 73.4% | 60.9% | 5.11% | 4.6% | 1.95% | 103% | 84% | 110% | 96% | 118% | 95.6% | 92.8% | 71.6% | 8.12% | 6.53% | 2.21%
C[C@@H]1COCCN1c1cc(C2([S@+](C)(=N)[O-])CC2)nc(-c2ccnc3[nH]ccc23)n1 | 90.4% | 100% | 98.5% | 77.8% | 102% | 93.4% | 95.3% | 40.6% | 21.5% | 21.5% | 14% |  |  |  |  |  |  |  |  |  |  |  | 81.8% | 96% | 114% | 74.4% | 130% | 102% | 66.3% | 42.4% | 24.8% | 20.6% | 10.7%
C[C@](O)(CS(=O)(=O)c1ccc(F)cc1)C(=O)Nc1ccc(C#N)c(C(F)(F)F)c1 | 93.9% | 108% | 104% | 89.4% | 116% | 112% | 114% | 116% | 105% | 109% | 93.4% | 81.3% | 101% | 99.7% | 74.3% | 88.6% | 97.2% | 102% | 88.4% | 93% | 91% | 75.3% | 105% | 113% | 116% | 73.4% | 119% | 111% | 132% | 122% | 96.1% | 97.5% | 72.7%
CCOC(=O)N1CCN(/[N+]([O-])=N/Oc2ccc([N+](=O)[O-])cc2C#N)CC1 | 85% | 88.8% | 86.5% | 91.4% | 120% | 106% | 109% | 25.2% | 15.3% | 13.6% | 9.4% | 104% | 108% | 106% | 109% | 110% | 125% | 114% | 16% | 10.6% | 10.3% | 7.12% | 106% | 92.3% | 108% | 107% | 114% | 117% | 104% | 22.4% | 12.1% | 12.2% | 9.24%
CC1CNc2c(cccc2[S+](=O)([O-])N[C@@H](CCCNC(=N)N)C(=O)N2CC[C@@H](C)C[C@@H]2C(=O)O)C1 (some centres undefined) | 88% | 94.7% | 102% | 111% | 98.2% | 117% | 117% | 124% | 106% | 128% | 95.6% | 85.6% | 90% | 96.4% | 108% | 75.7% | 103% | 113% | 97.1% | 101% | 107% | 103% | 70% | 90.1% | 101% | 97% | 99.1% | 103% | 107% | 106% | 110% | 84.7% | 108%
CC(C)(C)NC(=O)Nc1cccc(Nc2ncc(F)c(NC(C)(C)CO)n2)c1 | 101% | 99.9% | 103% | 104% | 109% | 102% | 99.8% | 101% | 77.1% | 31.5% | 29.9% | 108% | 103% | 104% | 108% | 115% | 120% | 95.8% | 102% | 69.1% | 16.4% | 9.58% | 107% | 118% | 110% | 115% | 115% | 120% | 111% | 103% | 71.8% | 19.9% | 16%
COc1cc(OC2CCN(C)CC2)ccc1Nc1ncc2c(n1)n(C1CCCC1)c(=O)n2C | 63.8% | 87.5% | 78.2% | 69.4% | 77.3% | 99% | 97.3% | 64.7% | 59% | 25.6% | 2.44% | 87.4% | 80.4% | 79.3% | 81.1% | 99% | 90.1% | 83.2% | 67.4% | 76.1% | 20.7% | 2.73% | 74.2% | 88.5% | 71.9% | 75.4% | 78.3% | 96.1% | 84.4% | 55.4% | 67.7% | 26.6% | 2.25%
C[C@H]1COC2=C3N1\C=C(C(O)=O)/C(=O)C3=CC(=C2N4CCN(C)CC4)F | 102% | 117% | 117% | 108% | 106% | 110% | 92.9% | 68.7% | 68.2% | 65.4% | 52.7% | 105% | 115% | 102% | 115% | 90.6% | 81.4% | 94.7% | 73.4% | 63.6% | 58.6% | 31.9% | 90% | 109% | 112% | 99.1% | 90.2% | 96.4% | 88.7% | 64.1% | 76.9% | 70.4% | 69.4%
Cn1cnc2c(F)c(Nc3ccc(Br)cc3F)c(C(=O)NOCCO)cc21 | 95.3% | 84.2% | 93.4% | 22% | 105% | 89.5% | 80% | 85.4% | 87.9% | 87.7% | 74.3% | 85.3% | 86.1% | 96.9% | 16% | 94.1% | 108% | 89.2% | 85.9% | 87.1% | 70.9% | 61.6% | 88.1% | 85.5% | 107% | 19.6% | 87.5% | 91.5% | 83.1% | 70.6% | 76.2% | 66% | 52.8%
O=C1[C@H](Cc2ccc(O)cc2)N2C(=O)CCN(C(=O)NCc3ccccc3)[C@H]2CN1Cc1cccc2ccccc12 | 51.6% | 86.6% | 103% | 93.6% | 77% | 74.3% | 77.4% | 62.8% | 64.8% | 12.3% | 51.3% | 64.9% | 108% | 99.7% | 98.1% | 76.7% | 93.6% | 86.2% | 83.9% | 78.6% | 15.2% | 65.6% | 55.1% | 101% | 94.7% | 95% | 83% | 93.3% | 74.1% | 73.8% | 73.3% | 15.3% | 63.2%
Cc1cnn(C)c1C(=O)Nc1cc(Nc2ccc3c(/C=C/c4ccccn4)n[nH]c3c2)ccc1F | 114% | 123% | 112% | 103% | 110% | 89.6% | 72.4% | 70.7% | 63.4% | 49.7% | 23.8% | 120% | 118% | 121% | 107% | 104% | 87.8% | 67% | 62.1% | 45.4% | 28.4% | 4.94% | 114% | 119% | 144% | 124% | 103% | 89.1% | 75.9% | 68.3% | 60.6% | 43% | 14.2%
CCN1CCN(CC1)CC(=O)NC2=CC=C(C3=C2C4=C(S3)C=CC=C4)C5=C6O\C(=C/C(=O)C6=CC=C5)N7CCOCC7 | 107% | 98.2% | 109% | 106% | 111% | 93.4% | 88.4% | 30% | 18% | 8.23% | 30.3% | 117% | 108% | 107% | 95.2% | 124% | 91.7% | 82.3% | 55.6% | 14.4% | 8.04% | 27.8% | 137% | 122% | 123% | 116% | 105% | 110% | 88.6% | 71.3% | 24% | 9.66% | 27.2%
CCN(CC)CCCCNc1ncc2cc(-c3cc(OC)cc(OC)c3)c(NC(=O)NC(C)(C)C)nc2n1 | 89.9% | 104% | 119% | 114% | 86.2% | 98.6% | 105% | 84% | 70.3% | 46.2% | 9.92% | 118% | 113% | 107% | 109% | 100% | 90.7% | 92.1% | 78.8% | 87% | 53.6% | 17% | 112% | 105% | 113% | 106% | 97.7% | 108% | 95.4% | 81% | 76.6% | 44.9% | 14.4%
CCOC(=O)[C@@H](N)Cc1ccc(-c2cc(O[C@H](c3ccc(Cl)cc3-n3ccc(C)n3)C(F)(F)F)nc(N)n2)cc1.O=C(O)CNC(=O)c1ccccc1 | 100% | 129% | 93.3% | 133% | 127% | 107% | 126% | 125% | 115% | 110% | 45.1% | 96.4% | 112% | 82.2% | 110% | 114% | 103% | 98.6% | 113% | 97.1% | 115% | 17.1% | 106% | 132% | 111% | 118% | 102% | 119% | 120% | 111% | 109% | 117% | 24%
COc1ccccc1OCC(O)COC(N)=O (centres undefined) | 84% | 102% | 104% | 110% | 118% | 114% | 109% | 106% | 119% | 111% | 89.1% | 94.6% | 110% | 85.6% | 110% | 104% | 95.8% | 112% | 106% | 120% | 97.6% | 99.4% | 108% | 109% | 103% | 123% | 106% | 121% | 136% | 93.8% | 126% | 118% | 112%
